Tests used:
Format in all cases: cell-based
Details in all cases: after 10, 20, 40 and 60 minutes at all dilutions 1:100, 1:200, 1:400, 1:800
Pseudomonas aeruginosa = test: Antimicrobial testing by agar dilution, Ps. aeruginosa
Protocol: (§1) The antimicrobial properties of the 6-[4,4-bis(4-bromophenyl)-2,5-dioxoimidazolidin-1-yl]hexanoic acid were studied by the method of agar dilution. Test solutions of each compound was prepared in concentration of 1% using dimethylformamide as a solvent then they are diluted in physiological solution to obtain the final experimental dilutions 1:100, 1:200, 1:400, 1:800. The effect of these substances are compared with furacillin in a controllable study. The testing microbes used were gram positive bacteria Staphylococcus aereus, gram negative bacteria Escherichia Coli, Pseudomonas aeruginosa and Candida albicans fungi were taken. The experiments used for this survey were meat-pentonlu agar (EPA) for cultivation of bacteria and Saburo environment for fungi. Each experiment used 1 ml of test solution on each plate 500 min. Add 2 drops of emulsified with microbes feel. All experimental samples were taken from the agar after 10, 20, 40, 60 minutes in the environment on the basis of Patrk planted. Bacteria were cultivated at a temperature of 37° C. for 1 day and the mushroom was kept in a thermostat for 2 hours at a temperature of 28° C. in the. Then results were checked.

Candida albicans = test: Antimicrobial testing by agar dilution, Candida albicans
Protocol: as §1

Staphylococcus aereus = test: Antimicrobial testing by agar dilution, St. Aereus
Protocol: as §1

Escherichia Coli = test: Antimicrobial testing by agar dilution, E. Coli
Protocol: as §1

O=C(O)CCCCCN1C(=O)NC(c2ccc(Br)cc2)(c2ccc(Br)cc2)C1=O [6-[4,4-bis(4-bromophenyl)-2,5-dioxoimidazolidin-1-yl]hexanoic acid]
higher inhibition activity: inhibition activity, Pseudomonas aeruginosa (Pseudomonas aeruginosa) | inhibition activity, Candida albicans (Candida albicans) | inhibition activity, Staphylococcus aereus (Staphylococcus aereus) | inhibition activity, Escherichia Coli (Escherichia Coli)
